Measured values: patent US10508120B2, “TYK2 inhibitors and uses thereof” (Nimbus Lakshmi, Inc., priority 2017, dated 2019)
Read-outs that look alike come from different tables or passages of the source.

Experiments:
[1] = molecular target: human TYK2 (JH2domain-pseudokinase) (Homo sapiens (Human), UniProt P29597); test: TYK2 JH2 Domain Binding Assay (KINOMEscan)
Procedure, shortened: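 Competition binding of an NFkB-DBD fusion of human TYK2 JH2 (G556–D888), expressed in HEK293 and used as crude extract at <0.1 nM, against immobilized ligand beads; 1 h at room temperature in PBS/Tween/DTT/BSA buffer, 0.9% DMSO.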

[2] = molecular target: Tyk2 kinase domain (DH1) (Homo sapiens (Human), UniProt P29597); test: Tyk2 Radioactive Kinase Assay; format: biochemical; conditions: for inhibition at 10 µM: read-out: Tyk2 JH1% Inhibition @ 10 μM
Sequence of Tyk2 kinase domain (DH1) (P29597 897-1176): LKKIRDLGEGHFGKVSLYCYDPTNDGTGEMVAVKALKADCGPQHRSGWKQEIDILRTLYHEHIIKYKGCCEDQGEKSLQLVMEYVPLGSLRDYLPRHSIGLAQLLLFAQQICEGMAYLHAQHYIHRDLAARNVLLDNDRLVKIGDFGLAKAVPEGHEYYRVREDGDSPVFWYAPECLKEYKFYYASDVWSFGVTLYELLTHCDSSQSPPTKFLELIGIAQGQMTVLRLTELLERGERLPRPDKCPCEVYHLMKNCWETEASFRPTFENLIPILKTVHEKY
Procedure, shortened: (§1)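 Compounds were tested at a single concentration of 10 μM in a radiometric kinase format against each isolated kinase domain. Activity is reported as percent inhibition at that concentration.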

[3] = molecular target: JAK2 kinase domain (JH1) (Homo sapiens (Human), UniProt O60674); test: JAK2 Radioactive Kinase Assay; format: biochemical; conditions: for inhibition at 10 µM: read-out: JAK2 JH1% Inhibition @ 10 μM
Sequence of JAK2 kinase domain (JH1) (O60674 849-1124): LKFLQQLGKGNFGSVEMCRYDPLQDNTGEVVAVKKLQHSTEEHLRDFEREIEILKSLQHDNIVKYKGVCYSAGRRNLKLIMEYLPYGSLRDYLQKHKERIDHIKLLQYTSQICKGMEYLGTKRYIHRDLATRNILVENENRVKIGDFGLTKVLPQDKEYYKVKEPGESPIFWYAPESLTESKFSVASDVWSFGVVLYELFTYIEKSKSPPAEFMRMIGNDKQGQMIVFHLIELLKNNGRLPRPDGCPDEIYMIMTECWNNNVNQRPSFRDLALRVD
Procedure, shortened: as §1

[4] = molecular target: Tyk2/JAK2 (heterodimeric complex) (Homo sapiens (Human), UniProt P29597); test: IL-12 Induced pSTAT4 in Human PBMC; format: cell-based; conditions: 1.7 ng/mL IL-12
Sequence of Tyk2/JAK2 (heterodimeric complex) (P29597 whole entry, other chains not shown): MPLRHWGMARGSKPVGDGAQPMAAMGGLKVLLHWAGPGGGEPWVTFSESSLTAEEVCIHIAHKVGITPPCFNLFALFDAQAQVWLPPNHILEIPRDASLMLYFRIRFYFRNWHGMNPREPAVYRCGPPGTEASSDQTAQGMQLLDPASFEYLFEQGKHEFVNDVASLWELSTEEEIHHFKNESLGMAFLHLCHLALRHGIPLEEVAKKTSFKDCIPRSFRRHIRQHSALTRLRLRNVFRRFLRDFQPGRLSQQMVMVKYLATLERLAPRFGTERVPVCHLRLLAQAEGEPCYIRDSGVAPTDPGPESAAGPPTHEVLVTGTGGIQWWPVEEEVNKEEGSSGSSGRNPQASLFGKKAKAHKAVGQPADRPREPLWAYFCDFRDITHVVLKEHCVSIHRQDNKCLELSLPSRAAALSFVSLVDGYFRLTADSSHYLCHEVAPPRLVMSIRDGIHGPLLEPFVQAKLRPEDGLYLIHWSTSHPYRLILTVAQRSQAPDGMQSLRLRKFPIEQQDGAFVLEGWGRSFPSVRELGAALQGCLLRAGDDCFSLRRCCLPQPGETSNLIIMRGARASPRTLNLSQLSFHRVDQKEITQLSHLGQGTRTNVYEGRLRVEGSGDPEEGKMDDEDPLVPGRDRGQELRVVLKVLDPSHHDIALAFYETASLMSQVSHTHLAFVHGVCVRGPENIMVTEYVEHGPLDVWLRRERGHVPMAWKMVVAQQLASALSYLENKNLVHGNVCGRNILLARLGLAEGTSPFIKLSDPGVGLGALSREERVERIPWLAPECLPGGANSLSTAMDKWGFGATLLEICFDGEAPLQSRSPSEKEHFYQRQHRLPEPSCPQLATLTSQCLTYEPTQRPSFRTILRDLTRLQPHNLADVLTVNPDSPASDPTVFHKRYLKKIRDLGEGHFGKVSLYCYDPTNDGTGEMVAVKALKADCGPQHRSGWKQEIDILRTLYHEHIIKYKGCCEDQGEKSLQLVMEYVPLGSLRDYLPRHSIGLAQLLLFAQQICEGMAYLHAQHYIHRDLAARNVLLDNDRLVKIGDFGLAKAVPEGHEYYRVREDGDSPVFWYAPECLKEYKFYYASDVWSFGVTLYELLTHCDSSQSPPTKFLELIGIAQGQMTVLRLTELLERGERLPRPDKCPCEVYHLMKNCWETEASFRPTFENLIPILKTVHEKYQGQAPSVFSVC
From the text: The IL-12 Induced pSTAT4 assay evaluates the inhibition of IL-12 induced STAT4 phophorylation mediated by Tyk2/JAK2 (heterodimeric complex).

[5] = molecular target: JAK2/JAK2 homdimeric complex (Homo sapiens (Human), UniProt O60674); test: GM-CSF Induced pSTAT5 in Human PBMC; format: cell-based; conditions: GM-CSF 5 ng/mL for 20 minutes, pSTAT5 by MSD, read-out: PBMC_GMCSF_pSTAT5 IC50
Sequence of JAK2/JAK2 homdimeric complex (O60674 whole entry): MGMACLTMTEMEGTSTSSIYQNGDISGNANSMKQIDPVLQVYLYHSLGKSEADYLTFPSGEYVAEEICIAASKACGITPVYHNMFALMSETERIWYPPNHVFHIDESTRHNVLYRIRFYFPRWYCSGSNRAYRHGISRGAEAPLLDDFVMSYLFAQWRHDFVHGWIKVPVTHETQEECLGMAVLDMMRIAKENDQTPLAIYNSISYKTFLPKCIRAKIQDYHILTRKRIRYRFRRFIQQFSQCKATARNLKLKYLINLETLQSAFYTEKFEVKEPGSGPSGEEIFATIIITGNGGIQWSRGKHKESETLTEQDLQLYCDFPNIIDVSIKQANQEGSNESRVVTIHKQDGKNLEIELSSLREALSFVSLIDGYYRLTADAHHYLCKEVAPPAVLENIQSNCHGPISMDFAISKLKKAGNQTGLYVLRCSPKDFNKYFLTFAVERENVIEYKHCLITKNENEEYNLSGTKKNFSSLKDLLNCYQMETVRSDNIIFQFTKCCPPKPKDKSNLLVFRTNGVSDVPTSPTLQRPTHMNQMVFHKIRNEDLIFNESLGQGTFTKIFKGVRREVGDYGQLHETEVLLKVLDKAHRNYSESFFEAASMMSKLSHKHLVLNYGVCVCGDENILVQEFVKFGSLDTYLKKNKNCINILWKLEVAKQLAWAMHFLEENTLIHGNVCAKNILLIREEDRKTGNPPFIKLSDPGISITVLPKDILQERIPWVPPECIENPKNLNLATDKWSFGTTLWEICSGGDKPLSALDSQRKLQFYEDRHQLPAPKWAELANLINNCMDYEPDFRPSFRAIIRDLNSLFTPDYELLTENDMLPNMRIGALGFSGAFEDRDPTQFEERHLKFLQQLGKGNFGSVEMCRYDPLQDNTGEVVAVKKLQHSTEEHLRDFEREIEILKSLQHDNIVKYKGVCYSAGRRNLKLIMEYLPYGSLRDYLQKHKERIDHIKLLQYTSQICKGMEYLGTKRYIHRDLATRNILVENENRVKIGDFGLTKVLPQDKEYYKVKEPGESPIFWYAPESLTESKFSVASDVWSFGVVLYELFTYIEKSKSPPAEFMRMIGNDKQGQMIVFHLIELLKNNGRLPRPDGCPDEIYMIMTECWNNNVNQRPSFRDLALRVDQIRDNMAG
Sequence of JAK2/JAK2 homdimeric complex (P32927 17-897 partner): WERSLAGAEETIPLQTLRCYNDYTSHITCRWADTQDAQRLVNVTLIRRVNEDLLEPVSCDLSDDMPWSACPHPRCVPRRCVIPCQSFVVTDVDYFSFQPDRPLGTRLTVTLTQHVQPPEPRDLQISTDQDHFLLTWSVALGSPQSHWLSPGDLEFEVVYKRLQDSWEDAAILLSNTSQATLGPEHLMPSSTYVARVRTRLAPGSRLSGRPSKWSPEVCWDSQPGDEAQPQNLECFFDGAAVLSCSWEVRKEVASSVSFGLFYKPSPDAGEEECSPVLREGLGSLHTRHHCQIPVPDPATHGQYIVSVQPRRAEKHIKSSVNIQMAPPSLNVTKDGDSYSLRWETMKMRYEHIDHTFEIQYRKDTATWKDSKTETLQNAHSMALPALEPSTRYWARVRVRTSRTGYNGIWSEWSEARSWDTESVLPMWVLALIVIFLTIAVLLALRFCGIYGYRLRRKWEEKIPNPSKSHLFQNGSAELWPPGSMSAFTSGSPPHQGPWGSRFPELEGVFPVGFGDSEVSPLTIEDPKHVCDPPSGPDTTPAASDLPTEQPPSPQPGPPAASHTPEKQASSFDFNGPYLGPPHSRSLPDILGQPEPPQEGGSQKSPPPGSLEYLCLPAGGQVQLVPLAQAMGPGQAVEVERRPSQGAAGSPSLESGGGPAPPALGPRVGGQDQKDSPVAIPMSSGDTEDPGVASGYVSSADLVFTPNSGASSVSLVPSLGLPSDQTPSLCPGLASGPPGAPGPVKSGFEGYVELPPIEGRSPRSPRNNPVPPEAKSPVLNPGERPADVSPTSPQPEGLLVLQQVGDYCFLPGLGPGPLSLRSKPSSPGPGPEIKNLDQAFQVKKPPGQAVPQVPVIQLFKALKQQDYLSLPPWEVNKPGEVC

Sequence of human TYK2 (JH2domain-pseudokinase) (P29597 556-888): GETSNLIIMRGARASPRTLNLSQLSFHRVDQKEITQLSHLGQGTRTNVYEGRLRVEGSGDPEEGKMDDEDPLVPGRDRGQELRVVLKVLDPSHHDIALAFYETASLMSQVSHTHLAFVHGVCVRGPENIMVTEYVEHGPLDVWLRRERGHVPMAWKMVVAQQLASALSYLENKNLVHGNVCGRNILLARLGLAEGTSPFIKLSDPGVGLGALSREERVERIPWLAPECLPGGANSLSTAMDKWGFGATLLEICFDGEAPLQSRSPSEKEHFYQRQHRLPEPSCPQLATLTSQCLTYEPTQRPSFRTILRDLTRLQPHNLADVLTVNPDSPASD

Kd [1] [nM] | inhibition at 10 µM ([2]; compound at 10 μM, ATP 10 μM) [%] | inhibition at 10 µM ([3]; compound at 10 μM, ATP 10 μM) [%] | IC50 [4] [nM] | IC50 [5] [nM] | inhibition at 10 µM ([2]; 10 μM compound, 10 μM ATP) [%] | inhibition at 10 µM ([3]; 10 μM compound, 10 μM ATP) [%] | Structure (SMILES) | Tyk2 JH1% Inhibition @ 10 μM ([2]; 10 μM compound, 10 μM ATP) | JAK2 JH1% Inhibition @ 10 μM ([3]; 10 μM compound, 10 μM ATP)
< 0.2 | < 50 | < 50 | < 100 | > 12500 | – | – | CNc1cc(Nc2cc(F)ccc2F)nc2c(C(=O)NC3CC3)cnn12 [I-3] | – | –
< 0.2 | < 50 | < 50 | < 100 | > 12500 | – | – | CNc1cc(Nc2cccn(-c3cccc(C(C)(C)O)n3)c2=O)nc2c(C(=O)NC3CCC3)cnn12 [I-156] | – | –
0.2 to 1 | < 50 | < 50 | < 100 | > 2500 | – | – | CNc1cc(Nc2cccn(-c3nc(C)c(C)s3)c2=O)nc2c(C(=O)N[C@H]3C[C@H]3F)cnn12 [I-292] | – | –
< 0.2 | < 50 | < 50 | < 100 | > 12500 | – | – | CNc1cc(Nc2cccnc2OC)nc2c(C(=O)NC3CCC3)cnn12 [I-4] | – | –
< 0.2 | – | – | < 100 | > 50000 | < 50 | < 50 | CNC(=O)c1occc1Nc1cc(NC)n2ncc(C(=O)NC3CC3)c2n1 [I-887] | – | –
< 0.2 | < 50 | < 50 | 100 to 500 | > 12500 | – | – | CNc1cc(Nc2cccn(-c3ccc(C(=O)N4CCCC4)cn3)c2=O)nc2c(C(=O)NC3CCC3)cnn12 [I-121] | – | –
< 0.2 | < 50 | < 50 | < 100 | > 12500 | – | – | CNc1cc(Nc2cccn(-c3cnc(C)o3)c2=O)nc2c(C(=O)N[C@H]3C[C@H]3F)cnn12 [I-718] | – | –
< 0.2 | – | – | < 100 | > 50000 | – | – | CNc1cc(Nc2cccn(C3CCCCC3)c2=O)nc2c(C(=O)N[C@@H]3CC[C@H]3O)cnn12 [I-1002] | A (percent inhibition at 10 μM lower than 50) | A (percent inhibition at 10 μM lower than 50)
< 0.2 | < 50 | < 50 | < 100 | > 2500 | – | – | CNc1cc(Nc2cc(Cl)cn(C3CCCN(C)C3)c2=O)nc2c(C(=O)NC3CC3)cnn12 (centres unmarked) [I-740] | – | –
< 0.2 | < 50 | < 50 | < 100 | > 12500 | – | – | CNc1cc(-c2c[nH]c3c(C4CCOCC4)cc(Cl)cc23)nc2c(C(N)=O)cnn12 [I-190] | – | –
< 0.2 | < 50 | < 50 | < 100 | > 300 | – | – | CNc1cc(Nc2cc(F)cn(-c3cc(C)n(C)n3)c2=O)nc2c(C(=O)NC3CC3)cnn12 [I-384] | – | –
< 0.2 | < 50 | < 50 | < 100 | > 12500 | – | – | CNc1cc(Nc2cccn([C@H]3CC[C@H](OC)CC3)c2=O)nc2c(C(=O)NC3CC3)cnn12 [I-343] | – | –
< 0.2 | < 50 | < 50 | < 100 | > 50000 | – | – | CNc1cc(Nc2cc(Cl)cn([C@@H]3CCCOC3)c2=O)nc2c(C(=O)NC3CC3)cnn12 [I-783] | – | –
< 0.2 | < 50 | < 50 | < 100 | > 2500 | – | – | CNc1cc(Nc2cccn([C@H]3CC[C@H](OC)CC3)c2=O)nc2c(C(=O)N[C@@H]3CC[C@@H]3O)cnn12 [I-560] | – | –
< 0.2 | < 50 | < 50 | < 100 | > 50000 | – | – | CNc1cc(Nc2cc(Cl)cn([C@H]3CCCOC3)c2=O)nc2c(C(=O)NC3CC3)cnn12 [I-782] | – | –
< 0.2 | < 50 | < 50 | < 100 | > 50000 | – | – | CNc1cc(Nc2cccnc2OC)nc2c(C(=O)NC3CCC3O)cnn12 (centres unmarked) [I-390, N-(2-hydroxycyclobutyl)-5-((2-methoxypyridin-3-yl)amino)-7-(methylamino) pyrazolo[1,5-a]pyrimidine-3-carboxamide] | – | –
< 0.2 | < 50 | < 50 | < 100 | > 12500 | – | – | CNc1cc(Nc2cccc3ocnc23)nc2c(C(=O)NC3CC3)cnn12 [I-591] | – | –
< 0.2 | – | – | < 100 | > 50000 | < 50 | < 50 | CNc1cc(-c2cn(C3CC3)c3ncccc23)nc2c(C(=O)N[C@@H]3C[C@@H]3F)cnn12 [I-961, 5-(1-cyclopropyl-1H-pyrrolo[2,3-b]pyridine-3-yl)-N-((1R,2S)-2-fluorocyclopropyl)-7-(methylamino)pyrazolo[1,5-a]pyrimidine-3-carboxamide] | – | –
< 0.2 | < 50 | < 50 | < 100 | > 12500 | – | – | CNc1cc(Nc2cccc(N3CCCC3=O)n2)nc2c(C(=O)N[C@H]3C[C@H]3F)cnn12 [I-244] | – | –
< 0.2 | < 50 | < 50 | < 100 | > 2500 | – | – | CNc1cc(Nc2cc(F)cn(-c3cc(C)n(C)n3)c2=O)nc2c(C(=O)N[C@H]3C[C@H]3F)cnn12 [I-385] | – | –
< 0.2 | < 50 | < 50 | < 100 | > 50000 | – | – | CNc1cc(Nc2cc(F)cnc2OC2CC2)nc2c(C(=O)NC3CCC3)cnn12 [I-276] | – | –
< 0.2 | – | – | < 100 | > 50000 | < 50 | < 50 | CNc1cc(Nc2cccn([C@@H]3CCC[C@H](OC)C3)c2=O)nc2c(C(=O)N[C@@H]3C[C@@H]3F)cnn12 [I-840] | – | –
< 0.2 | < 50 | < 50 | < 100 | > 2500 | – | – | CNc1cc(Nc2cccn(-c3ncc(C)s3)c2=O)nc2c(C(=O)N[C@H]3CC[C@@H]3O)cnn12 (stereo in doubt) [I-676, N-(2-hydroxycyclobutyl)-7-(methylamino)-5-((1-(5-methylthiazol-2-yl)-2-oxo-1,2-dihydropyridin-3-yl)amino)pyrazolo[1,5-a]pyrimidine-3-carboxamide] | – | –
< 0.2 | < 50 | < 50 | 100 to 500 | > 50000 | – | – | CNc1cc(Nc2cccnc2OC2CC2)nc2c(C(=O)NCC(C)CO)cnn12 (centres unmarked) [I-435] | – | –
< 0.2 | < 50 | < 50 | < 100 | > 2500 | – | – | CNc1cc(Nc2cccn(-c3cccnc3)c2=O)nc2c(C(=O)N[C@@H]3C[C@@H]3F)cnn12 [I-748] | – | –
0.2 to 1 | < 50 | < 50 | 100 to 500 | > 50000 | – | – | CNc1cc(Nc2cc(F)cnc2OC(C)C)nc2c(C(=O)N[C@H]3C[C@H]3F)cnn12 [I-211] | – | –
0.2 to 1 | < 50 | < 50 | 100 to 500 | > 2500 | – | – | CNc1cc(Nc2cc(C)cnc2OCCOC)nc2c(C(=O)NC3CCC3)cnn12 [I-282] | – | –
< 0.2 | < 50 | < 50 | < 100 | > 50000 | – | – | CNc1cc(Nc2cccn(-c3ccon3)c2=O)nc2c(C(=O)NC3CCC3)cnn12 [I-158] | – | –
